# Assay results: patent publication US20080234299A1, “Quinazolinones” (MERCK PATENT GMBH, priority 2005, published 2008)
# System: cells
# Assay: cell cycle experiments (G2/M)
# Type: cell-based
compound,measurement,value
N=C(N)c1ccc(OCCCCCOc2ccc(C(=N)N)cc2)cc1 [pentamidine],effect on cell cycle,maintain cells in the G2/M cell cycle
